What was measured:
Assay type in all cases: in vivo
Poa annua = test: post-emergence test, pot trial (Examples 1-5); conditions: 28 d, PT; pelargonic acid 10880 g/ha, flazasulfuron 50 g/ha; 16 L/ha
Description: (§1) The expected activity of a given combination of two or three herbicides can be calculated as follows according to a calculation method by Colby (cf. COLBY, S. R.: “Calculating synergistic and antagonistic responses of herbicide combinations”, • Weeds 15, pages 20-22, 1967): • If X=% damage by herbicide (A) at an application rate of m g/ha, • Y=% damage by herbicide (B) at an application rate of n g/ha, • E=the expected damage by herbicides (A) and (B) at application rates of m and n […] and, • then for a combination:
(§2) Individual compositions comprising pelargonic acid or flazasulfuron are compared with a herbicide composition according to the invention comprising pelargonic acid and flazasulfuron.
(§3) Herbicidal activity was determined by performing a post-emergence test. […] The corresponding mixture was in the form of a spray liquor. Besides, spray liquors of individual compositions comprising pelargonic acid or flazasulfuron were used.
(§4) Tests were performed on test fields (field trials) or in pots (pot trials).

Matricaria chamomilla = test: post-emergence test, pot trial (Examples 1-5); conditions: bigger plants, 28 d, PT, pelargonic acid 10880 g/ha, 16 L/ha
Description: as §1, §2, §3, §4

Setaria pumila = test: post-emergence test, pot trial (Examples 1-5); conditions: young plants, 28 d, PT, pelargonic acid 10880 g/ha, 16 L/ha
Description: as §1, §2, §3, §4

Geranium dissectum = test: post-emergence test, pot trial (Examples 1-5); conditions: 28 d, PT, pelargonic acid 10880 g/ha, 16 L/ha
Description: as §1, §2, §3, §4

Trifolium repens = test: post-emergence test, pot trial (Examples 1-5); conditions: 28 d, PT; pelargonic acid 10880 g/ha, flazasulfuron 50 g/ha; 16 L/ha
Description: as §1, §2, §3, §4

Festuca ovina = test: post-emergence test, field trial (Examples 1-5); conditions: FT
Description: as §1, §2, §3, §4

[1] = bigger plants, flazasulfuron 50 g/ha
[2] = young plants, flazasulfuron 25 g/ha
[3] = young plants, flazasulfuron 50 g/ha
[4] = 3 d, pelargonic acid 10880 g/ha, flazasulfuron 25 g/ha, 16 L/ha
[5] = 3 d, pelargonic acid 21760 g/ha, flazasulfuron 25 g/ha, 32 L/ha
[6] = 7 d, pelargonic acid 10880 g/ha, flazasulfuron 25 g/ha, 16 L/ha
[7] = 7 d, pelargonic acid 10880 g/ha, flazasulfuron 50 g/ha, 16 L/ha
[8] = 7 d, pelargonic acid 21760 g/ha, flazasulfuron 25 g/ha, 32 L/ha
[9] = 7 d, pelargonic acid 21760 g/ha, flazasulfuron 50 g/ha, 32 L/ha
[10] = 13 d, pelargonic acid 10880 g/ha, flazasulfuron 25 g/ha, 16 L/ha
[11] = 13 d, pelargonic acid 10880 g/ha, flazasulfuron 50 g/ha, 16 L/ha
[12] = 13 d, pelargonic acid 21760 g/ha, flazasulfuron 25 g/ha, 32 L/ha
[13] = 13 d, pelargonic acid 21760 g/ha, flazasulfuron 50 g/ha, 32 L/ha
[14] = 23 d, pelargonic acid 10880 g/ha, flazasulfuron 25 g/ha, 16 L/ha
[15] = 23 d, pelargonic acid 10880 g/ha, flazasulfuron 50 g/ha, 16 L/ha
[16] = 23 d, pelargonic acid 21760 g/ha, flazasulfuron 25 g/ha, 32 L/ha
[17] = 23 d, pelargonic acid 21760 g/ha, flazasulfuron 50 g/ha, 32 L/ha
[18] = 30 d, pelargonic acid 10880 g/ha, flazasulfuron 25 g/ha, 16 L/ha
[19] = 30 d, pelargonic acid 21760 g/ha, flazasulfuron 25 g/ha, 32 L/ha
[20] = 38 d, pelargonic acid 10880 g/ha, flazasulfuron 25 g/ha, 16 L/ha
[21] = 38 d, pelargonic acid 21760 g/ha, flazasulfuron 25 g/ha, 32 L/ha

SMILES	herbicidal effect (Poa annua)	herbicidal effect (Matricaria chamomilla; flazasulfuron 25 g/ha)	herbicidal effect (Matricaria chamomilla; flazasulfuron 50 g/ha)	herbicidal effect (Setaria pumila; flazasulfuron 25 g/ha)	herbicidal effect (Setaria pumila; flazasulfuron 50 g/ha)	herbicidal effect (Geranium dissectum; [1])	herbicidal effect (Geranium dissectum; [2])	herbicidal effect (Geranium dissectum; [3])	herbicidal effect (Trifolium repens)	herbicidal effect (Festuca ovina; [4])	herbicidal effect (Festuca ovina; [5])	herbicidal effect (Festuca ovina; [6])	herbicidal effect (Festuca ovina; [7])	herbicidal effect (Festuca ovina; [8])	herbicidal effect (Festuca ovina; [9])	herbicidal effect (Festuca ovina; [10])	herbicidal effect (Festuca ovina; [11])	herbicidal effect (Festuca ovina; [12])	herbicidal effect (Festuca ovina; [13])	herbicidal effect (Festuca ovina; [14])	also measured
CCCCCCCCC(=O)O [Pelargonic acid, nonanoic acid]	0%	0%	0%	40%	40%	24%	32%	32%	0%	20%	45%	20%	20%	30%	30%	0%	0%	0%	0%	0%	herbicidal effect (Festuca ovina; [15]): 0%; herbicidal effect (Festuca ovina; [16]): 0%; herbicidal effect (Festuca ovina; [17]): 0%; herbicidal effect (Festuca ovina; [18]): 0%; herbicidal effect (Festuca ovina; [19]): 20%; herbicidal effect (Festuca ovina; [20]): 0%; herbicidal effect (Festuca ovina; [21]): 0%
COc1cc(OC)nc(NC(=O)NS(=O)(=O)c2ncccc2C(F)(F)F)n1 [Flazasulfuron, 1-(4,6-dimethoxypyrimidin-2-yl)-3-(3-trifluoromethyl-2-pyridylsulfonyl)urea]	0%	0%	2%	89%	92%	0%	7%	8%	1.2%	0%	0%	30%	20%	30%	20%	30%	20%	30%	20%	75%	herbicidal effect (Festuca ovina; [15]): 0%; herbicidal effect (Festuca ovina; [16]): 75%; herbicidal effect (Festuca ovina; [17]): 0%; herbicidal effect (Festuca ovina; [18]): 75%; herbicidal effect (Festuca ovina; [19]): 75%; herbicidal effect (Festuca ovina; [20]): 80%; herbicidal effect (Festuca ovina; [21]): 80%
